Test results: patent US20180153840A1, “THE COMPOSITIONS OF GLYCEROL AND /OR NON-TOXIC AMINO ACIDS FOR INHIBITING AND DESTROYING BIOFILM, INCLUDING RELATED METHODS” (priority 2015, published 2018)
Where two headings read alike, the source gives them in different places.

Assays:
[1] = Experimental: (§1) For fungal biofilm assays, all solutions were prepared in RPMI 1640 medium. All bacterial biofilm solutions were prepared in Trypic Soy Broth (TSB), supplemented with 1% glucose (henceforth referred to as TSB-G). All subsequent procedures were performed in a manner that maintained sterility. A solution of each amino acid to be tested was prepared in weight to volume concentrations ranging from 0.1-5.0%. Amino acids were also tested in combinations. Compound solutions were homogenized with gentle agitation in the dark (4° C., 24 hours) before use.
(§2) All biofilm assays were performed using 384-well non-tissue culture treated polystyrene plates. The fungal species tested are as follows: Candida albicans, Candida guilliermondii Candida parapsilosis, Candida glabrata, Candida tropicalis and Candida dubliniensis. The bacterial species tested are as follows: Staphylococcus aureus (standard wild type and methicillin-resistant strain USA300), Escherichia coli, Pseudomonas aeruginosa and Staphylococcus epidermidis.

[2] = system: bacterial and fungal biofilms; assay: In vitro testing on bacterial and fungal biofilms; assay type: cell-based; conditions: for effect on bacterial and fungal biofilm (in words): in vitro
Experimental: as §1, §2
(§3) Fungal strains were streaked on Yeast Peptone Dextrose (YPD) agar plates and incubated at 30° C. for 48 hours. A single colony from each strain to be tested was inoculated into YPD broth and grown for 12 hours, at 30° C., shaking at 225 rpm. For the fungal biofilm inhibition assay, 1 μl of saturated overnight cell culture was added to either 80 μL of RPMI-1640 or RPMI-1640 supplemented with the amino acid compound solution to be tested, in a 384-well plate. The cells were allowed to adhere to the plate for 90 minutes at 37° C. with shaking (350 rpm). Loosely bound cells were washed once with phosphate buffered saline (PBS) and 80 ul of RPMI-1640, or RPMI-1640 supplemented with the amino acid compound solution was added to the plate. The plate was further incubated for 24 hours at 37° C. with shaking (350 rpm). Media was carefully aspirated and the biofilm was measured for fungal cell concentration by optical density at 600 nm. Twelve replicates were performed for each tested condition and the reported values were normalized to the control (RPMI-1640 media only).
(§4) For the fungal biofilm disruption assays, 80 μL of RPMI-1640 was added to the plate, along with 1 μL of overnight cell culture. The cells were allowed to adhere to the plate for 90 minutes at 37° C. with shaking (350 rpm). Loosely bound cells were washed once with PBS and 80 μL of RPMI-1640 was added to the plate. The plate was further incubated for 24 hours at 37° C. with shaking (350 rpm). Media was carefully aspirated from the mature biofilm and 80 μL of RPMI-1640, or RPMI-1640 supplemented with the amino acid compound solution to be tested, was gently added to the plate. The plate was further incubated for 24 hours at 37° C. with shaking (350 rpm). Media was carefully aspirated and the biofilm was measured for fungal cell concentration by optical density at 600 nm. Twelve replicates were performed for each tested condition and the reported values are normalized to the control (RPMI-1640 media only).
(§5) Bacterial strains were streaked on Blood Agar plates (5% sheep blood in Tryptic Soy Broth) and incubated at 37° C. for 24 hours. A single colony from each strain to be tested was inoculated in a TSB broth and grown for 12 hours, at 37° C. with shaking (225 rpm).
(§6) For the bacterial biofilm inhibition assays, 1 μL of saturated overnight cell culture was added to either 80 μL of TSB-G, or TSB-G supplemented with the amino acid compound solution to be tested, in a 384-well plate. The cells were allowed to adhere to the plate for 60 minutes at 37° C. without shaking. The media was carefully aspirated and 80 μL of TSB-G, or TSB-G supplemented with the amino acid compound solution was added to the plate. The plate was further incubated for 24 hours at 37° C. without shaking. Media was carefully aspirated and the biofilm was measured for bacterial cell concentration by optical density at 600 nm.

C. albicans biofilm [3] = assay: Fungal biofilm disruption assay; assay type: cell-based, Candida albicans; conditions: 1% amino acid, p≤0.001
Experimental: as §1, §2, §4

S. aureus biofilm [4] = assay: Bacterial biofilm disruption assay; assay type: cell-based; conditions: Staphylococcus aureus
Experimental: as §1, §2, §5
(§7) For the bacterial biofilm disruption assays, 80 μL of TSB-G was added to the plate, along with 1 μL of overnight cell culture. The cells were allowed to adhere to the plate for 60 minutes at 37° C. without shaking. The media was carefully aspirated and 80 μL of TSB-G was added to the plate. The plate was further incubated for 24 hours at 37° C. without shaking. Media was carefully aspirated from the mature biofilm and 80 μL of TSB-G, or TSB-G supplemented with the amino acid to be tested, was gently added to the plate. The plate was further incubated for 24 hours at 37° C. without shaking. Media was aspirated and the biofilm was measured for bacterial cell concentration by optical density at 600 nm. Twelve replicates were performed for each tested condition and the reported values were normalized to the control (TSB-G media only).

C. albicans biofilm [5] = assay: Fungal biofilm inhibition assay; assay type: cell-based, Candida albicans; conditions: sustained inhibition assay, 1% amino acid, p≤0.001
Experimental: as §1, §2, §3

bacterial biofilms = assay: Bacterial biofilm assays (sustained inhibition and/or disruption); assay type: cell-based, Staphylococcus aureus; conditions: for anti-biofilm properties against bacterial biofilms: individually, about 0.1 to about 5.0% weight to volume (cystathionine 0.2%), at least one of the two assays
Experimental: as §1, §2, §5
as §6, with “nm. Eight or twelve replicates were performed for each tested condition and the reported values were normalized to the control (TSB-G media only).” for “nm.”
as §7

fungal biofilms = assay: Fungal biofilm assays (sustained inhibition and/or disruption); assay type: cell-based, Candida albicans; conditions: at least one of the two assays (sustained inhibition and/or disruption); for anti-biofilm properties against fungal biofilms: administered individually
Experimental: as §1, §2, §3, §4

S. aureus biofilm [6] = assay: Bacterial biofilm inhibition assay; assay type: cell-based, Staphylococcus aureus; conditions: sustained inhibition assay, S. aureus, 1% amino acid, p≤0.001
Experimental: as §1, §2, §5
as §6, with “nm. Eight or twelve replicates were performed for each tested condition and the reported values were normalized to the control (TSB-G media only).” for “nm.”

[7] = system: bacteria (S. aureus) biofilm and fungal (C. albicans) biofilm; assay: Disruption biofilm assay, bacterial and fungal together (Table D: Both/Neutral); assay type: cell-based, Staphylococcus aureus; Candida albicans; conditions: 1% amino acid
Experimental: as §1, §2
as §4, with “Twelve replicates were performed for each tested condition and the reported values are normalized to the control (RPMI-1640 media only).” left out
For the bacterial biofilm disruption assays, 80 μL of TSB-G was added to the plate, along with 1 μL of overnight cell culture. […] Media was aspirated and the biofilm was measured for bacterial cell concentration by optical density at 600 nm. […]

[8] = system: bacteria (S. aureus) biofilm and fungal (C. albicans) biofilm; assay: Sustained inhibition biofilm assay, bacterial and fungal together (Table C: Both/Neutral); assay type: cell-based, Staphylococcus aureus; Candida albicans; conditions: 1% amino acid
Experimental: as §1, §2
Fungal strains were streaked on Yeast Peptone Dextrose (YPD) agar plates and incubated at 30° C. for 48 hours. A single colony from each strain to be tested was inoculated into YPD broth and grown for 12 hours, at 30° C., shaking at 225 rpm. For the fungal biofilm inhibition assay, 1 μl of saturated overnight cell culture was added to either 80 μL of RPMI-1640 or RPMI-1640 supplemented with the amino acid compound solution to be tested, in a 384-well plate. The cells were allowed to adhere to the plate for 90 minutes at 37° C. with shaking (350 rpm). […] Media was carefully aspirated and the biofilm was measured for fungal cell concentration by optical density at 600 nm. […]
For the bacterial biofilm inhibition assays, 1 μL of saturated overnight cell culture was added to either 80 μL of TSB-G, or TSB-G supplemented with the amino acid compound solution to be tested, in a 384-well plate. […] Media was carefully aspirated and the biofilm was measured for bacterial cell concentration by optical density at 600 nm. […]

[9] = disruption assay, S. aureus, 1% amino acid, p≤0.001, read-out: Reduce B Biofilm

Row | SMILES | inhibition at 1 % (S. aureus biofilm [4]; [9]) [%] | anti-biofilm properties against bacterial biofilms (bacterial biofilms) | Reduce B Biofilm (S. aureus biofilm [6]) | Reduce F Biofilm (C. albicans biofilm [3]) | Reduce F Biofilm (C. albicans biofilm [5]) | effect on bacterial and fungal biofilm (in words) [2] | anti-biofilm properties against fungal biofilms (fungal biofilms) | other results
1 | Cn1cnc(C[C@H](N)C(=O)O)c1 [1-Methylhistidine, 1-methyl-L-histidine] | – | – | – | – | – | – | – | solubility (in words) [1]: limited solubility; neutral, effect on bacterial or fungal biofilms ([2]; both assays (sustained inhibition and disruption)): no effect on bacterial or fungal biofilms
2 | Cn1cncc1C[C@H](N)C(=O)O [3-Methylhistidine, 3-methyl-L-histidine] | 10 to 30 | anti-biofilm properties against bacterial biofilms | – | – | – | – | – | Promote F Biofilm (C. albicans biofilm [3]): • (a single dot (●) signifies an effect in a range of about 10 to about 30% change); Promote F Biofilm (C. albicans biofilm [5]): • (a single dot (●) signifies an effect in a range of about 10 to about 30% change); support (improve) fungal biofilm growth (fungal biofilms): support (improve) fungal biofilm growth
3 | N[C@@H](CC(=O)O)C(=O)O [Aspartic Acid, L-aspartic acid] | > 30 | – | •• (two dots (●●) signifies an effect of greater than 30% change) | •• (two dots (●●) signifies an effect of greater than 30% change) | •• (two dots (●●) signifies an effect of greater than 30% change) | very active against biofilm | – | Reduce Both [7]: •• (two dots (●●) signifies an effect of greater than 30% change); Reduce Both [8]: •• (two dots (●●) signifies an effect of greater than 30% change)
4 | N[C@@H](CCSC[C@H](N)C(=O)O)C(=O)O [Cystathionine, L-cystathionine] | – | anti-biofilm properties against bacterial biofilms | – | – | – | – | – | inhibition at 0.2 % (S. aureus biofilm [4]; disruption assay, S. aureus, 0.2% amino acid, read-out: Reduce B Biofilm): 10 to 30%; solubility (in words) [1]: limited solubility
5 | N[C@@H](CS)C(=O)O [Cysteine, L-cysteine] | > 30 | – | •• (two dots (●●) signifies an effect of greater than 30% change) | •• (two dots (●●) signifies an effect of greater than 30% change) | •• (two dots (●●) signifies an effect of greater than 30% change) | – | – | Reduce Both [7]: •• (two dots (●●) signifies an effect of greater than 30% change); Reduce Both [8]: •• (two dots (●●) signifies an effect of greater than 30% change)
6 | NCCO [Ethanolamine, ethanolamine] | – | anti-biofilm properties against bacterial biofilms | – | – | • (a single dot (●) signifies an effect in a range of about 10 to about 30% change) | – | anti-biofilm properties against fungal biofilms | –
7 | N[C@@H](CCC(=O)O)C(=O)O [Glutamic Acid, L-glutamic acid] | > 30 | – | •• (two dots (●●) signifies an effect of greater than 30% change) | •• (two dots (●●) signifies an effect of greater than 30% change) | •• (two dots (●●) signifies an effect of greater than 30% change) | very active against biofilm | – | Reduce Both [7]: •• (two dots (●●) signifies an effect of greater than 30% change); Reduce Both [8]: •• (two dots (●●) signifies an effect of greater than 30% change)
8 | N[C@@H](CCS)C(=O)O [Homocysteine, L-homocysteine] | – | anti-biofilm properties against bacterial biofilms | – | – | – | – | anti-biofilm properties against fungal biofilms | –
9 | O=C(O)[C@@H]1C[C@@H](O)CN1 [Hydroxyproline, Trans-4-hydroxy-L-proline] | – | anti-biofilm properties against bacterial biofilms | • (a single dot (●) signifies an effect in a range of about 10 to about 30% change) | – | • (a single dot (●) signifies an effect in a range of about 10 to about 30% change) | – | anti-biofilm properties against fungal biofilms | inhibition at 1 % (S. aureus biofilm [4]; read-out: Reduce B Biofilm): 10 to 30%
10 | N[C@@H](COP(=O)(O)O)C(=O)O [Phosphoserine, O-phospho-L-serine] | 10 to 30 | anti-biofilm properties against bacterial biofilms | – | • (a single dot (●) signifies an effect in a range of about 10 to about 30% change) | – | – | anti-biofilm properties against fungal biofilms | –
11 | N[C@@H](CO)C(=O)O [Serine, L-serine] | – | – | – | – | – | promote bacterial and fungal biofilm | – | activation at 1 % (S. aureus biofilm [6]; Staphylococcus aureus, read-out: Promote B Biofilm): 10 to 30%; activation at 1 % (S. aureus biofilm [4]; disruption assay, S. aureus, 1% amino acid, p≤0.001, read-out: Promote B Biofilm): 10 to 30%; support (improve) bacterial biofilm growth (bacterial biofilms; based on the two assays (sustained inhibition and/or disruption)): support (improve) bacterial biofilm growth
12 | CC(C)[C@H](N)C(=O)O [Valine, L-valine] | – | – | – | – | – | promote bacterial and fungal biofilm | – | Promote F Biofilm (C. albicans biofilm [3]): • (a single dot (●) signifies an effect in a range of about 10 to about 30% change); Promote F Biofilm (C. albicans biofilm [5]): • (a single dot (●) signifies an effect in a range of about 10 to about 30% change); support (improve) fungal biofilm growth (fungal biofilms): support (improve) fungal biofilm growth
